Assay [1] relates to peripheral axons. Put plainly: Threshold tracking of peripheral nerve excitability in anesthetized rats. In kind it is in vivo. The conditions noted are these: rat, dosed 45 min after Example 1 at 30 mg/kg. The protocol:
Threshold Tracking to Measure the Effects of Example 1 at 3.10 and 30 mg/kg IP on Peripheral Nerve Excitability
Threshold tracking is a non-invasive technique that allows measurement of the excitability properties of peripheral axons by providing information about their membrane potential and ion channel function.
16 male Wistar rats from Charles River, weighing between 307-446 g ware used. Animals are group housed with standard housing conditions (4 per cage, 07:00 h to 19:00 h light phase, constant temperature (21° C.) and humidity, and free access to food and water, as well as environmental enrichment).
Rats are anesthetized with isoflurane (2-2.5%, O2 at 0.5 L/min) and then placed on their back on a heating pad to keep the tail temperature above 32° C. The placement of the ring electrodes are marked out and the marked sections of the tail are scraped with a blade to remove hair and the top layer of skin. The sites are cleaned with water and dried, allowing fora good conduction between the skin and the sticky electrodes.
A sticky ring stimulating electrode (+ve anode) is wrapped around the foot. A second sticky ring stimulating electrode (−ve cathode) is wrapped 1.5 cm from the base of the tail. A needle recording electrode is placed just off center on the top of the tail, 6 cm distal to the stimulating cathode at the base of the tail. A needle reference electrode is placed just off center on the top of the tail, 2 cm distal to the recording electrode. A sticky ground electrode is wrapped around the tail 2 cm proximal from the recording electrode.
• Start the Multitrack program (description below) and Spike. • Record 15 min of stable baseline • After the 15 min, dose with Example 1 or HEC • Take blood spot for PK at the following: • 10 min post dose • 20 min post dose • 30 min post dose • 40 min post dose • 45 min after IP (intraperitoneal) dosing with Example 1, dose XE-991 (XE-991 is a commercially available compound that blocks KCNQ potentiator effects in a formalin assay in vivo—see Y. Zheng, et al., “Activation of peripheral KCNQ channels relieves gout pain,” Pain, 156 (2015) 1025-1035; and R. Zaczek, et al., “Two New Potent Neurotransmitter Release Enhancers, 10,10-Bis(4-Pyridinylmethyl)-9(10H)-Anthracenone and 10,10-Bis(2-Fluoro-4-Pyridinylmethyl)-9(10H)-Anthracenone: Comparison to Linopirdine” The Journal of Pharmacology and Experimental Therapeutics, 285:724-730, 1998. • (XE-991 is only dosed after Example 1 at 30 mg/kg) • Take blood spot for PK at the following: • 10 min post dose (55 min post Example 1 administration) • 20 min post dose (65 min post Example 1 administration) • 30 min post dose (75 min post Example 1 administration) • 40 min post dose (85 min post Example 1 administration)
In threshold tracking assay to measure the excitability properties of peripheral axons studies in rat, compound is administered by IP at 3, 10 or 30 mg/kg using 1% hydroxyethylcellulose: 0.25% polysorbate 80:0.05% antifoam:purified water (HEC) formulation. Dry blood spots (DBS) are collected around 10, 20, 30 and terminal 40 min post-dose. DBS samples are dried at RT for around 2 h. Brain samples are obtained at terminal time point and frozen until analysis. DBS samples are shipped and stored at RT.

Assay [2] addresses T1, hKv7.2 and hKv7.3 (Kv7.2/7.3) (Homo sapiens, UniProt O43525+O43526).
T1 construct: host or cells: HEK293
Put plainly: Modulation of Kv7.2/7.3 conductance, automated electrophysiology (IonWorks Barracuda, population patch clamp) in HEK293 cells. Also noted: Voltage Shift ([…]V0.5), Mean: unit not given here. The conditions noted are these: for Maximal Shift (efficacy) / Slope / EC50: 4-parameter logistic fit of voltage shift data; for EC50: read-out: EC50 (potency of V0.5 shift). It is filed as cell-based. As to the method: Modulation of Kv7.2/7.3 Conductance by Kv7 Potentiators in a Mammalian Expression System
The potency and efficacy of Kv7 potentiators is assessed by automated electrophysiology on the IonWorks Barracuda (Molecular Devices) platform using the population patch clamp mode of the instrument.
Cell Culture: HEK293 cells stably expressing hKv7.2 (under tetracycline induction) and hKv7.3 (Catalog #CT6147, Charles River) are used for these studies. Cells are maintained in a Dulbecco's modified Eagle's medium/nutrient mixture Ham's F-12 (Sigma-Aldrich) supplemented with 5% tetracycline-screened fetal bovine serum (Sigma-Aldrich), 15 mM HEPES, 500 μg/mL G418, 100 U/mL penicillin, 100 μg/mL streptomycin, […] L-glutamine, 100 μg/mL zeocin, and 5 μg/mL blasticidin. Expression of hKv7.2 is induced by addition of 1 μg/mL doxycycline 24 h prior to recordings.
Cells are cultured in Corning T-150 flasks to a confluence of 85%-95%. At the start of an experiment, cells are washed once with D-PBS without calcium and magnesium and then dissociated by incubating in 3 ml of 0.25% trypsin for 8 min at 37° C. Cells ware resuspended in media, triturated gently, and centrifuged for 4 min at 1,000 rpm. Cells are resuspended in external solution to a final concentration of 2.5-3.5M cells/mL.
Solutions: External solution w is composed of (in mM): 140 NaCl, 5 KCl, 2 CaCl2, 1 MgCl2, 10 HEPES, 10 Glucose, pH 7.4. Internal solution is composed of (in mM): 90 K-gluconate, 40 KCl, 3.2 EGTA, 3.2 MgCl2, 5 HEPES, pH 7.25. The membrane perforating agent amphotericin B is prepared daily as a 27 mg/mL stock solution in DMSO and then added to the internal solution to a final concentration of 0.1 mg/mL. Test article dilutions are prepared in 384-well plates from 10 mM DMSO stock solutions and diluted using acoustic dispensing (Labcyte ECHO®), such that final DMSO concentrations are 0.1%.
Electrophysiological Recordings: Resuspended cells are placed on the IONWORKS® BARRACUDA™ (IWB) instrument, external solution is added to a 384-well patch plate, and a hole test is performed to determine blocked wells and offset voltages. Cells are then added to the patch plate (9 μL per well) by the instrument. Two seal tests are performed prior to introducing the perforating agent amphotericin in the internal solution and allowing approximately 8 min to obtain electrical access, which is verified by a third seal test. The command voltage protocol consists of a family of 1 sec voltages steps from −80 mV to +40 mV from a holding potential of −80 mV and is applied prior to (baseline) and 6 min after test article addition.
Data Analysis: Data are acquired and leak subtracted using IWB software. Current amplitudes during the last 10 msec of each voltage step are averaged and exported. Further analysis is performed using Microsoft Excel and GraphPad Prism. Current amplitude is converted to conductance (G) by the following formula: G=I/(V−Ek) where I=current, V=step potential, Ek=potassium reversal potential (−84 mV). Conductance in the presence of test article is normalized to the baseline conductance at +40 mV for the same well. Conductance-voltage (G−V) curves are fitted with the Boltzmann equation y=Bottom+(Top−Bottom)/(1+EXP((Vm−V0.5/k)).
Fitting a 4-parameter logistic equation to the data may be used to determine the potency (EC50) and efficacy (maximal shift) for each test compound.
A general note: In patch-clamp work, channel activity is measured electrically.

The mark [3] stands for this setting: 10 μM, difference from control in voltage at half-maximal conductance.

As for `O=C1c2ccccc2C(Cc2ccncc2)(Cc2ccncc2)c2ccccc21` [XE-991, reference compound], the “reversal of the Example 1 induced increase in absolute threshold” value in assay [1] is “able to reverse this increase”.

As for `O=C(NCCC1(C(F)(F)F)CC1)NCc1ccnc(OCC(F)(F)F)c1` [Example 3, 1-[[2-(2,2,2-trifluoroethoxy)-4-pyridyl]methyl]-3-[2-[1-(trifluoromethyl)cyclopropyl]ethyl]urea], the “Voltage Shift ([…]V0.5), Mean” value in assay [2] (0.0005 μM) is given as 3.9; in assay [2] (0.0015 μM), 0.1; in assay [2] (0.005 μM) it was 1.9; in assay [2] (0.01 μM), −1.8; in assay [2] (0.04 μM), −4.4; in assay [2] (0.12 μM), −11.0. Also, the “Voltage Shift ([…]V0.5), Mean” value in assay [2] (0.37 μM) was −19.6; in assay [2] (1.11 μM), −21.9; in assay [2] (3.33 μM), −23.9; in assay [2] (setting [3]), −21.9. The “Maximal Shift (efficacy)” value in assay [2] is listed as −23. In addition, the Slope in assay [2] was found to be 1.1. In addition, the EC50 in assay [2] came out at 100 nM.

Take `O=C(NCc1ccnc(OCC(F)(F)F)c1)NCC(O)C1(C(F)(F)F)CC1` (single isomer, unassigned) [Example 2, (+)-1-[2-hydroxy-2-[1-(trifluoromethyl)cyclopropyl]ethyl]-3-[[2-(2,2,2-trifluoroethoxy)-4-pyridyl]methyl]urea and (−)1-[2-hydroxy-2-[1-(trifluoromethyl)cyclopropyl]ethyl]-3-[[2-(2,2,2-trifluoroethoxy)-4-pyridyl]methyl]urea]: the “Voltage Shift ([…]V0.5), Mean” value in assay [2] (0.0005 μM) amounted to 6.1; in assay [2] (0.0015 μM) it was 4.1; in assay [2] (0.005 μM), 5.0; in assay [2] (0.01 μM), 4.1; in assay [2] (0.04 μM), 7.4; in assay [2] (0.12 μM), 2.9. Moreover, the “Voltage Shift ([…]V0.5), Mean” value in assay [2] (0.37 μM) is −1.9; in assay [2] (1.11 μM) it was −10.6; in assay [2] (3.33 μM) it was −23.0; in assay [2] (setting [3]) it was −25.8. In addition, the “Maximal Shift (efficacy)” value in assay [2] was −28. In addition, in assay [2], the Slope is given as 1.3. For the same molecule, the EC50 in assay [2] turned out to be 1100 nM.

The values are drawn from patent US12344584B2, “KCNQ potentiators” (Eli Lilly and Company, priority 2019, dated 2025).
